This is an account of results in patent US20250171457A1, “NITROGEN-CONTAINING HETEROCYCLIC COMPOUND HAVING NRF2 ACTIVATION EFFECT” (CHUGAI SEIYAKU KABUSHIKI KAISHA, priority 2022, published 2025).

Like-named read-outs stand apart in the source and are kept apart here.

Assay [1] has as its system Nqo1 (NAD(P)H quinone dehydrogenase 1) mRNA, Nrf2 downstream molecule. The assay is described as follows: In vivo Nrf2 transcriptional activity measurement (Nqo1 mRNA in organs by qPCR). The conditions noted are these: Mus musculus, C57BL/6J mice, 7 to 8 hours; for fold induction at 15 mg/kg: ip, Intraperitoneal; for fold induction at 30 mg/kg: Oral. The protocol: Test Example 2: In Vivo Nrf2 Transcriptional Activity Measurement
A test compound (solvent: 10 vol % dimethyl sulfoxide/50 mM glycine/32 mM sodium hydroxide/physiological saline) was administered to C57BL/6J mice (7-8 weeks old), which were euthanized by whole blood collection under isoflurane anesthesia 7 to 8 hours later, followed by the collection of various organs. mRNA was purified from the collected organs, and the mRNA expression level of Mapk1 as an internal control and the mRNA expression level of Nqo1 (NAD(P)H quinone dehydrogenase 1) as a typical Nrf2 downstream molecule were each measured by qPCR. The Nqo1 mRNA expression level was quantified by comparative CT, and an expression level ratio to a non-administration group was calculated. The administration of the test compound elevated the Nqo1 mRNA expression level in the various organs, confirming that the test compound also has a Nrf2-activating effect in vivo.

The test system of assay [2] is Nrf2 transcriptional activity (pARE-Luc reporter) in HepG2 cells. The assay is described as follows: In vitro Nrf2 transcriptional activity measurement by ARE-dependent reporter assay in HepG2 cell. The format is cell-based, human. In a few lines: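 Luminescence readout (Bright-Glo) after 4 h, 37° C compound exposure of HepG2 cells carrying the ARE-luciferase vector pGL4.37. Each well converted to % response versus reference compound at 3.75 μM, and EC50 derived from dose-response curves.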

The mark [3] stands for this setting: kidney, read-out: Nqo1 mRNA expression level ratio to non-administration group, Kidney.
Setting [4] is: liver, read-out: Nqo1 mRNA expression level ratio to non-administration group, Liver.
[5] abbreviates: lung, read-out: Nqo1 mRNA expression level ratio to non-administration group, Lung.

Broadly, the EC50 is the concentration that produces a half-maximal response. Read a low EC50 as greater potency. With `COC1CC2(C1)CN(c1cc(Cl)c(C(=O)N3COc4c(cccc4-c4cc(N5C6CCC5COC6)c(C(=O)O)cc4F)C3)c(Cl)c1)C2` [Compound 13-16, 4-[3-[2,6-Dichloro-4-(6-methoxy-2-azaspiro[3.3]heptan-2-yl)benzoyl]-2,4-dihydro-1,3-benzoxazin-8-yl]-5-fluoro-2-(3-oxa-8-azabicyclo[3.2.1]octan-8-yl)benzoic acid], the fold induction at 15 mg/kg in assay [1] (setting [3]) stood at 4.8; in assay [1] (setting [4]), 6.6; in assay [1] (setting [5]), 20. The fold induction at 30 mg/kg in assay [1] (setting [3]) was 4.5; in assay [1] (setting [4]), 6; in assay [1] (setting [5]) it was 22. The same compound returned an EC50 in assay [2] (HepG2 cells, pARE-Luc reporter, 4 hours, 100% = Example 1-54 or Example 17-23 at 3.75 μM) of 0.95 nM.

As to `C[C@@H]1CN(c2ccc(C(=O)N3COc4c(cccc4-c4cc(N5C6CCC5COC6)c(C(=O)O)cc4F)C3)c(Cl)c2)[C@H](C)CN1C` [Compound 13-21, 4-[3-[2-Chloro-4-[(2R,5R)-2,4,5-trimethylpiperazin-1-yl]benzoyl]-2,4-dihydro-1,3-benzoxazin-8-yl]-5-fluoro-2-(3-oxa-8-azabicyclo[3.2.1]octan-8-yl)benzoic acid], the fold induction at 30 mg/kg in assay [1] (setting [3]) was found to be 2.9; in assay [1] (setting [4]), 4.9; in assay [1] (setting [5]), 3.6. This compound returned an EC50 in assay [2] (HepG2 cells transfected with pARE-Luc, 4 hours at 37° C., luciferase activity of Example 1-54 or Example 17-23 at 3.75 μM defined as 100%, second printing of Table 20-1) of 2.3 nM.

As to `Cn1cc(-c2cc(Cl)c(C(=O)N3COc4c(cccc4-c4ccc(C(=O)O)c(N5CCOCC5)c4)C3)c(Cl)c2)cn1` [Compound 14-1, 4-[3-[2,6-Dichloro-4-(1-methylpyrazol-4-yl)benzoyl]-2,4-dihydro-1,3-benzoxazin-8-yl]-2-morpholin-4-ylbenzoic acid], the fold induction at 30 mg/kg is 5.7 in assay [1] (setting [3]), 4.2 in assay [1] (setting [4]) and 17 in assay [1] (setting [5]). Further, the EC50 in assay [2] (Homo sapiens, HepG2 cells transfected with pARE-Luc, 4 hours at 37° C., luciferase activity of Example 1-54 or Example 17-23 at 3.75 μM defined as 100%) was 3.2 nM.
